The values below are quoted from earlier work in patent US20250099443A1, “METHODS FOR SYNTHESIZING ALEUTIANAMINE AND ANALOGS THEREOF” (California Institute of Technology, priority 2023, published 2025).

For this series, the system named is human pancreatic adenocarcinoma cell line PANC-1.

For `O=C1C2=C3C4=[N+](CCc5c[nH]c1c54)[C@@H]1C[C@]34S[C@@H](C=C4C=C1Br)N2` [Aleutianamine], the IC50 (human pancreatic adenocarcinoma cell line PANC-1, read-out: IC50 against PANC-1) is 25 nM. For the same compound, the “potency against PANC-1 relative to gemcitabine” value (times greater than that of gemcitabine) is on record as “over 160 times”.

As usually defined, the IC50 is the midpoint of a concentration-inhibition curve.
